{"source": "patent US20240315991A1", "about": "“USES OF HNF4 ALPHA AGONISTS” (Sanford Burnham Prebys Medical Discovery Institute, priority 2023, published 2024)", "key": {"[1]": {"tested_on": "C57BL/6 mice fed high fat diet (HFD)", "assay": "HFD induced weight gain and hepatic steatosis, NCT in HFD chow for 10 weeks", "type": "in vivo", "description": "(§1) NCT oral administration. Four-week-old male C57BL/6J (JAX cat #000664) mice were purchased from Jackson laboratory and were maintained in a 12 h light/dark cycle throughout the experiment. Prior to the experiments, mice were acclimated for 2 weeks. Six-week-old mice with similar body weights were randomized to a normal diet (NC), a high fat diet (HFD) (Research Diets, cat #D12492 60 kcal % fat) or HFD containing 4000 ppm NCT (HFD+NCT) (Research Diets, 60 kcal % fat+4000 ppm NCT), which was calculated to provide approximately 400 mg/kg/d NCT. HFD chow containing NCT was made with gray dye to distinguish it from regular HFD chow that had green dye. Mice for each treatment group were placed in separate cages. Equal amounts of fresh chow were provided every week to all mice. Body weight gain and food intake were measured every week for 10 weeks. After 10 weeks of chow treatment, mice were sacrificed for analysis. All animal experiments were approved by the Institutional Animal Care and Use Committee (IACUC) of the Sanford Burnham Prebys Medical Discovery Institute in accordance with national regulations. Sample size was chosen based on the prior study of NCT delivered by IP injection.\nSample collection. Mouse samples were collected as described previously. Briefly, on the final day of treatment mice received dextrose (3 g/kg of body weight) by IP injection to stimulate insulin secretion, which inhibits FFA release from adipocytes, leaving liver-derived FFA as the major source of circulating FFA. One hour later, blood samples were collected via retro-orbital bleeding and mice were euthanized using pentobarbital. Mice were dissected aseptically and liver, epididymal fat, and body weights were measured and pictures taken. Dissected liver samples were washed immediately in sterile cold PBS and cut into small pieces. Half of the liver samples were snap frozen using liquid nitrogen and stored at −80° C. for RNA, protein isolation, and liver lysate preparations. The other half were fixed in 4% of cold paraformaldehyde (PFA, Santa Cruz Biotechnology, USA) and processed for histomorphometry and immunofluorescence.\nOil Red O staining (in vivo) and analysis. Oil red O staining was performed as described previously. Slides containing frozen liver tissue sections from mice were air dried for 10-20 min followed by rehydration in distilled water. Sections were immersed in absolute propylene glycol (Cat #151957, MP Biomedicals, LLC, USA) for 2 min followed by 0.5% in Oil red O solution (Cat #K043, Poly Scientific R&D, USA) for 2 h. Slides were then differentiated in 85% propylene glycol solution, washed with dH2O for 2 h, and mounted using glycerin jelly mounting medium. All slides were scanned at a magnification of ×20 using the Aperio Scanscope FL system (Aperio Technologies Inc., Vista, CA, USA). The liver area stained with oil red O was measured using image J software as described, with some modifications as follow, Oil red O-stained liver images were opened in Image J software. Using the Analyze>Set Scale command, the scale bar of the images was set to 200 μm. RGB images were then converted into grayscale images using the Image>Type>RGB Stack command and were split into red, blue and green channels. Using the Image>Adjust>Threshold command, the threshold was manually set to highlight the Oil red O-stained lipid droplets in the green channel. The same threshold was used for all the images in all treatment groups and the % oil red O-stained area was obtained using the Analyze->Measure tool command. Fold change was calculated by normalizing the values to images from mice fed normal chow.\nTriglyceride analysis. The TG level in mouse liver, serum, and stool was measured according to manufacturer's instructions using the Triglyceride calorimetric Assay Kit (Cat #10010303, Cayman Chemicals, USA). Liver and stool TG was normalized with liver and stool weight, respectively. Fold change was calculated by normalizing to values from mice fed NC. […]"}, "[2]": {"tested_on": "total cellular nicotinamide adenine dinucleotide (NAD)", "assay": "Nicotinamide adenine dinucleotide assay in liver lysate", "type": "in vivo, mouse", "conditions": "HFD+NCT vs HFD, 10 weeks", "description": "as §1\nNicotinamide adenine dinucleotide assay. Total NAD level in liver lysate was analyzed according to manufacturer's instructions using a calorimetric NAD+/NADH assay kit (Cat #MET-5014, Cell Biolabs, Inc. USA). […]"}, "TNFα mRNA": {"tested_on": "TNFα mRNA", "assay": "RT-PCR of mouse liver, TNFα", "type": "in vivo", "conditions": "HFD+NCT vs HFD, FIG. 5B", "description": "as §1, with “All animal experiments were approved by the Institutional Animal Care and Use Committee (IACUC) of the Sanford Burnham Prebys Medical Discovery Institute in accordance with national regulations. Sample size was chosen based on the prior study of NCT delivered by IP injection.” left out\n(§2) RT-PCR. […] Quantitative real time PCR (RT-PCR) analysis was performed using SYBR® Select Master Mix (Applied Biosystems) and an ABI 7900HT thermal cycler (Applied Biosystems, Thermo Fisher Scientific). Ct values were normalized to 18s rRNA and are expressed as fold change over samples from mice fed NC or cultured human hepatocytes without NCT."}, "PPARGC1A mRNA": {"tested_on": "PPARGC1A mRNA", "assay": "RT-PCR of primary human hepatocytes, PPARGC1A", "type": "cell-based", "conditions": "HEP-fat media, NCT 5, 15, and 40 μM, FIG. 4F", "description": "(§3) Primary human hepatocytes. Experiments with primary human hepatocytes were performed by CN-Bio (Cambridge, UK). Briefly, primary human hepatocytes (PHHs), human Kupffer cells (HKs) and human stellate cells (HSCs) were seeded onto CN-Bio's PhysioMimix LC12 MPS culture plates at 6×10^5 cells for PHHs and 6×10^4 cells for HKs and HSCs in 1.6 ml of CN-Bio's HEP-lean media with 5% FCS. Throughout the experiment the cells were maintained at a flow rate of 1 μl/s. After 24 hours (Day 1) of seeding, the media was changed to HEP-lean media and the cells were incubated until day 4 to allow the cells to form microtissues. At day 4 post seeding, media was changed to HEP-fat media and treated with DMSO or NCT (5, 15, and 40 μM). Media was replaced on days 6 and 8. Cells were harvested on day 10 for RNA extraction and culture media was collected for ELISA analysis.\nas §2"}, "IL-6 mRNA": {"tested_on": "IL-6 mRNA", "assay": "RT-PCR of primary human hepatocytes, IL-6", "type": "cell-based", "conditions": "HEP-fat media, NCT 5, 15, and 40 μM, FIG. 5E", "description": "as §3, §2"}, "cytochrome C mRNA [3]": {"tested_on": "cytochrome C mRNA", "assay": "RT-PCR of mouse liver, cytochrome C", "type": "in vivo", "conditions": "HFD vs. HFD+NCT, FIG. 3G", "description": "as §1, with “All animal experiments were approved by the Institutional Animal Care and Use Committee (IACUC) of the Sanford Burnham Prebys Medical Discovery Institute in accordance with national regulations. Sample size was chosen based on the prior study of NCT delivered by IP injection.” left out\nas §2"}, "cytochrome C mRNA [4]": {"tested_on": "cytochrome C mRNA", "assay": "RT-PCR of primary human hepatocytes, cytochrome C", "type": "cell-based", "conditions": "0 μM vs. each concentration of NCT, FIG. 3I", "description": "as §3, §2"}, "[5]": {"conditions": "cited from earlier work"}, "[6]": {"conditions": "HFD containing 4000 ppm NCT, end of the experiment at 10 weeks"}}, "note": "“Also recorded” adds a separate entry of the source."}
{"smiles": "O=C(/C=C/c1ccc(O)c(O)c1)NCCc1ccc(O)cc1", "note": "[NCT, N-trans caffeoyltyramine]", "values": [{"measurement": "body weight compared with mice fed HFD alone", "setting": "[1]; C57BL/6 mice, HFD containing 4000 ppm NCT, 10 weeks", "result": "substantially less; also recorded: weighed less"}, {"measurement": "week at which lower body weight than HFD alone became evident", "setting": "[1]; HFD containing 4000 ppm NCT", "result": 5, "unit": "week"}, {"measurement": "body weight less than mice fed HFD", "setting": "[1]; [6]", "result": "~10", "unit": "g"}, {"measurement": "difference in body weight vs mice fed HFD", "setting": "[1]; [6]", "result": "35-40%"}, {"measurement": "Oil Red O staining of liver", "setting": "[1]; HFD+NCT vs HFD, 10 weeks", "result": "decreased"}, {"measurement": "liver redness", "setting": "[1]; HFD+NCT vs HFD, 10 weeks", "result": "increase; also recorded: redder"}, {"measurement": "liver size", "setting": "[1]; HFD+NCT vs HFD, 10 weeks", "result": "reductions"}, {"measurement": "liver weight", "setting": "[1]; HFD+NCT vs HFD, 10 weeks", "result": "lower"}, {"measurement": "obesity", "setting": "[1]; HFD+NCT vs HFD, 10 weeks", "result": "markedly less obese"}, {"measurement": "subcutaneous fat", "setting": "[1]; HFD+NCT vs HFD, 10 weeks", "result": "substantially less"}, {"measurement": "visceral adiposity", "setting": "[1]; HFD+NCT vs HFD, 10 weeks", "result": "reductions"}, {"measurement": "hepatic TG level", "setting": "[1]; HFD+NCT vs HFD, 10 weeks, normalized to liver weight", "result": "decreased"}, {"measurement": "epididymal fat pad weight", "setting": "[1]; HFD+NCT vs HFD, end of study, normalized with total body weight", "result": "no change"}, {"measurement": "toxicity from NCT consumption", "setting": "[1]; mice fed HFD containing NCT", "result": "no evidence of any toxicity"}, {"measurement": "mitochondrial mass", "setting": "[1]; mice fed HFD containing NCT vs HFD alone", "result": "increased"}, {"measurement": "total cellular NAD in liver", "setting": "[2]", "result": "increased; also recorded: substantial increase"}, {"measurement": "TNFα level in livers of mice on HFD", "setting": "TNFα mRNA", "result": "decreased"}, {"measurement": "TNFα level in livers of mice on HFD", "setting": "TNFα mRNA; listed as Compound A", "result": "decrease"}, {"measurement": "PPARGC1A(PGC1a) mRNA in primary human hepatocytes", "setting": "PPARGC1A mRNA", "result": "increase"}, {"measurement": "IL-6 mRNA level in cultured human hepatocytes", "setting": "IL-6 mRNA", "result": "decrease"}, {"measurement": "cytochrome C mRNA levels in mouse livers", "setting": "cytochrome C mRNA [3]", "result": "non-significant"}, {"measurement": "cytochrome C mRNA levels in primary human hepatocytes", "setting": "cytochrome C mRNA [4]", "result": "non-significant"}, {"measurement": "oral bioavailability", "setting": "[5]", "result": "poor"}]}
